Results from patent publication US6150359A, “Naphthyridinones for inhibiting protein tyrosine kinase and cell cycle kinase mediated cellular proliferation” (Warner-Lambert Company, priority 2000, dated 2000).

Assays:
[1] = molecular target: T1, PDGFr (mouse PDGF-β receptor tyrosine kinase) (Mus musculus, UniProt P05622); experiment: PDGFr tyrosine kinase assay, 32P incorporation into glutamate-tyrosine copolymer; format: biochemical; conditions: 50 μM ATP
T1 construct: PCR primers are designed to amplify a fragment of DNA that codes for the intracellular tyrosine kinase domain; made in house; host or cells: Sf9 insect cells (baculovirus), cell lysate
Protocol: Platelet Derived Growth Factor Receptor (PDGFr) and Fibroblast Growth Factor Receptor (FGFr). Full length cDNAs for the mouse PDGF-β and human FGF-1 (flg) receptor tyrosine kinases were obtained from J. Escobedo and are prepared as described in J. Biol. Chem., 1991;262:1482-1487. PCR primers are designed to amplify a fragment of DNA that codes for the intracellular tyrosine kinase domain. The fragment is melded into a baculovirus vector, cotransfected with AcMNPV DNA, and the recombinant virus isolated. SF9 insect cells are infected with the virus to overexpress the protein, and the cell lysate is used for the assay.
PDGFr and FGFr. […] Briefly, to each well is added 82.5 μL of incubation buffer containing 25 mM Hepes (pH 7.0), 150 mM NaCl, 0.1% Triton X-100, 0.2 mM PMSF, 0.2 mM sodium vanadate, 10 mM manganese chloride, and 750 μg/mL of poly (4:1) glutamate-tyrosine followed by 2.5 μL of inhibitor and 5 μL of enzyme lysate (7.5 μg/μL FGFR-TK or 6.0 μg/μL PDGFR-TK) to initiate the reaction. Following a 10 minute incubation at 25° C., 10 μL of [γ^32 P]ATP (0.4 μCi plus 50 μM ATP) is added to each well, and samples are incubated for an additional 10 minutes at 25° C. The reaction is terminated by the addition of 100 μL of 30% trichloroacetic acid (TCA) containing 20 mM sodium pyrophosphate and precipitation of material onto glass fiber filter mats (Wallac). […] Nonspecific activity is defined as radioactivity retained on the filters following incubation of samples with buffer alone; (no enzyme). Specific enzymatic activity is defined as total activity (enzyme plus buffer) minus nonspecific activity.

[2] = tested on: HCT-8 cells; experiment: Human Colon Carcinoma Growth Delay Assay, HCT-8; format: cell-based; conditions: 72 h, HCT-8, 3 days
Protocol: (§1) Human Colon Carcinoma Growth Delay Assay. Human colon carcinoma cells are seeded into 96-well tissue culture plates in a final volume of 180 μL of 10% fetal bovine serum containing growth media and allowed to incubate overnight (37° C., 5% CO2, 95% air). Cells of the SW-620 cell line are seeded at 1.0-1.5×10^4 cells per well. Cells of the HCT-8 and HT-29 cell lines are seeded at 2-4×10^3 cells per well. Serially diluted drug solutions are prepared in growth medium at 10 times concentration; 20 μL of these solutions are added to duplicate wells and incubated with the cells for 3 days in a cell culture incubator. At the end of the incubation period, cells are fixed with 100 μL per well of 10% trichloroacetic acid after removing the drug/culture medium. The plates are washed five times with tap water and stained with 100 μL per well of 0.075% sulfrhodamine B in 1% acetic acid for 10 minutes. The plates are rinsed four times and allowed to air dry. The stain in the wells are solubilized by the addition of 10 mM unbuffered Tris base and the absorbance read using a microtiter plate optical reader. Inhibition of cell growth is calculated from absorbance data of the treated cells compared to untreated control cells.

[3] = tested on: SW-620 cells; experiment: Human Colon Carcinoma Growth Delay Assay, SW-620; format: cell-based; conditions: 72 h, SW-620, 3 days
Protocol: as §1

[4] = molecular target: Protein kinase C (PKC); experiment: Protein kinase C (PKC) assay; format: biochemical; conditions: rat brain preparation
Protocol: Other Kinases. c-Src kinase is purified from baculovirus infected insect cell lysates using an antipeptide monoclonal antibody directed against the N-terminal 2-17 amino acids as described previously by Fry, et al., Anticancer Drug Design, 1994;9:331-351. Protein kinase C (PKC.) is obtained as a rat brain preparation from Promega.
Other Kinases. An assay using the intracellular kinase domains of insulin receptor (INSr) is performed as described for the EGF receptor except that 10 mM manganese chloride is included in the reaction. The PKC assay is performed as previously described by Martiny-Baron, et al., J. Biol. Chem., 1993;268:9194-9197.

[5] = tested on: HT-29 cells; experiment: Human Colon Carcinoma Growth Delay Assay, HT-29; format: cell-based; conditions: 72 h, HT-29, 3 days
Protocol: as §1

T1 sequence (P05622 599-961 limits assumed): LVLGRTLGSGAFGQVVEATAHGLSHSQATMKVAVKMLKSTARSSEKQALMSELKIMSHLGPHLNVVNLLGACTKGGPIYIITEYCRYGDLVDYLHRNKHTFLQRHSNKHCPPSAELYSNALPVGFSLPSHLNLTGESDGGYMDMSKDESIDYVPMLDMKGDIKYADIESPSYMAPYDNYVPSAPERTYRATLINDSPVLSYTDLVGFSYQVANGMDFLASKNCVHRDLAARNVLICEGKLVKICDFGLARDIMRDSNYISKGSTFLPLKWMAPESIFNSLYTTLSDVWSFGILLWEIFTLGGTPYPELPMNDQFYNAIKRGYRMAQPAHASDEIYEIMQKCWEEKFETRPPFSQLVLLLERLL

| Structure (SMILES) | IC50 [1] [µM] | IC50 [2] [µM] | IC50 [3] [µM] | IC50 [4] [µM] | IC50 [5] [µM] |
| --- | --- | --- | --- | --- | --- |
| CN1CCN(CCCNc2cc3c(cn2)cc(-c2c(Cl)cccc2Cl)c(=O)n3C)CC1 [Example H, 3-(2,6-dichlorophenyl)-1-methyl-7-[3-(4-methylpiperazin-1-yl)propylamino]-1H-[1,6]naphthyridin-2-one] | 0.89 | 2.8 | 5.2 | < 50 | 2.2 |
| CN1CCN(CCOc2ccc(Nc3cc4c(cn3)cc(-c3c(Cl)cccc3Cl)c(=O)n4C)cc2)CC1 [Example S, 3-(2,6-dichlorophenyl)-1-methyl-7-[(4-(2-(4-methylpiperazin-1-yl)ethoxy)phenyl)amino]-1H-[1,6]naphthyridin-2-one] | 0.34 | 5.2 | 6.8 |  | 0.9 |
| CCN(CC)CCOc1ccc(Nc2cc3c(cn2)cc(-c2c(Cl)cccc2Cl)c(=O)n3C)cc1 [Example P, 3-(2,6-dichlorophenyl)-7-[(4-(2-(diethylamino)ethoxy)phenyl)amino]-1-methyl-1H-[1,6]naphthyridin-2-one] | 0.09 | 2.8 | 6.7 | > 50 | 0.8 |
| CCN(CC)CCCCNc1cc2c(cn1)cc(-c1c(Cl)cccc1Cl)c(=O)n2C [Example F, 3-(2,6-dichlorophenyl)-7-[4-(diethylamino)butylamino]-1-methyl-1H-[1,6]naphthyridin-2-one] | 0.42 | 2.3 | 7.2 | > 50 | 1.5 |
